# Assay results taken from article PMC7949139, “The molecular basis of OH-PCB estrogen receptor activation” (The Journal of Biological Chemistry, 2021).
# Residue numbers refer to the chain shown, from its start.
# How the values were obtained:
# [1] = biological target: T1, spin-labeled SULT1E1, spin label attached at Cys residue 16 (C69S/G16C) (Homo sapiens, UniProt P49888, C69S/G16C); test: Initial-rate studies, spin-labeled construct (label at Cys 16); format: biochemical; settings: spin label at Cys 16; parentheses = one SD; read-out: Ki OH-PCB1
# T1 construct: E. coli codon-optimized SULT1E1 coding region inserted into the PreScission Protease cleavage site; His/GST/MBP triple tag (N, cleaved yes); made in house; host or cells: E. coli BL21(DE3)
# T1 sequence (P49888 1-294 G16C/C69S): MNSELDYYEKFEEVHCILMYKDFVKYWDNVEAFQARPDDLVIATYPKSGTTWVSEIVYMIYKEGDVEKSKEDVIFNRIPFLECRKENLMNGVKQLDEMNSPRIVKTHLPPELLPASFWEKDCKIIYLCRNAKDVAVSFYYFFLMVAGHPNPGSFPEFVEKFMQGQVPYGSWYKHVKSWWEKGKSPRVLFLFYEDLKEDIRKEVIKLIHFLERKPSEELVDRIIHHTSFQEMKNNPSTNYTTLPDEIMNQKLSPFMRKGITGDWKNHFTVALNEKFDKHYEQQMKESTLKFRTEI
# Procedure: Spin labels were attached to the SULT1E1 scaffold at Cys residues that were site-specifically incorporated via PCR-based mutagenesis. Prior to creating spin-label attachment constructs, reactive Cys was removed from the native scaffold. Only one of the four native SULT1E1 Cys (i.e., C69) reacts with DTNB ([39]), and mutagenic conversion of C69 to ser produced a stable, fully active non-DTNB-reactive scaffold. Five individual cys-attachment constructs were prepared from the C69S mutant (G16C, K25C, N150C, Q163C, and N233C). Mutants were labeled (see, Experimental procedures) and the initial rate parameters (kcat, Km and Ki) of each spin-labeled mutant were determined (see, Experimental procedures, Initial-Rate studies) to evaluate whether the catalytic integrity of the constructs had been compromised by the insertions and/or spin label attachments. […]
# Labels (N-cyclohexylmale-imide or 3-maleimido-PROXYL) were added in 20-fold excess over reactive cysteine to a solution containing SULT1E1 construct (50 μM active sites), 0.50 mM PAP, and 50 mM KPO4 (pH 7.4), 25 °C ± 2 deg. […] The reactions were monitored by using DTNB to measure unreacted cysteine and were considered complete when >98% of the cysteine had reacted (∼3 h).
# C. Reaction progress was monitored via the fluorescence change associated with 1-HP sulfonation (λex = 325 nm, λem = 370 nm ([51], [52])). […]
# SULT1E1 F75A = biological target: T2, SULT1E1 F75A (Homo sapiens, UniProt P49888, F75A); test: Initial-rate studies (1-HP sulfonation; OH-PCB1 inhibition), F75A mutant; format: biochemical
# T2 construct: E. coli codon-optimized SULT1E1 coding region inserted into the PreScission Protease cleavage site; His/GST/MBP triple tag (N, cleaved yes); made in house; host or cells: E. coli BL21(DE3)
# T2 sequence (P49888 1-294 F75A): T1 sequence (P49888 1-294 G16C/C69S) with C16G, S69C, F75A
# Procedure: C. Reaction progress was monitored via the fluorescence change associated with 1-HP sulfonation (λex = 325 nm, λem = 370 nm ([51], [52])). Initial rates were measured during conversion to product of ≤5% of the concentration-limiting substrate consumed at the reaction endpoint. Velocities were determined in triplicate. Km and kcat were obtained by (1/v^4)-weighted least-squares fitting of the averaged data in double-reciprocal space (i.e., 1/v versus 1/[S]) ([66], [67]).
# Inhibition studies were performed as described above except: 1-HP was fixed (2.0 μM, 100 × Km), OH-PCBs were added (0.20–20 × Ki), and SULT1E1 was 0.20 nM (active sites). Ki was determined by least-squares fitting to a noncompetitive inhibition model ([66], [67]).
# [2] = system: estrogen receptor (ER) activation in Ishikawa cells expressing WT SULT1E1; test: cells; format: cell-based, human; settings: Homo sapiens, Ishikawa; WT cell line; OH-PCB titration at 10 nM E2 (footnote a); parentheses = one SD; read-out: Ligand EC50, ER activation
# Procedure: (§1) pcDNA 3.1 constructs harboring either the SULT1E1 WT or double mutant (F75A/F80A) coding regions were generated using Gibson Assembly ([74]). The vectors were linearized using BGIII. Ishikawa cells were grown at 37 °C ± 2 deg. C in growth medium (MEM media containing 10% v/v FBS). At confluence, the cells were washed (3×) with PBS media before coating with an Opti-MEM solution containing a linearized construct (50 ng μg^−1) and lipofectamine (2.5 units ml^−1). After 24 h at 37 °C ± 2 deg. C, cells were washed (3×) with PBS before adding growth medium containing neomycin (400 μg ml^−1) to select transfectants. Selective growth medium was replenished every 48 h until single colonies could be isolated (∼3–6 weeks). Single colonies were transferred using trypsin digest (0.05%) to 12-well plates and grown at 37 °C ± 2 deg. C to confluence for further experimentation and storage.
# (§2) Transfected Ishikawa cells were grown at 37 °C ± 2 deg. C to 60 to 70% confluency in MEM containing 10% v/v FBS. Cells were then transferred to 96-well tissue culture plates and grown at 37 °C ± 2 deg. C to 80% confluency in MEM containing 10% v/v charcoal filtered FBS. The plate was then washed with PBS and grown at 37 °C ± 2 deg. C for 24 h in MEM without FBS. Estradiol (0–3.0 μM) and OH-PCB (0–1.0 μM) solubilized in neat DMSO were added and cells were incubated at 37 °C ± 2 deg. C for 5 days. The final concentrations of DMSO were ≤0.10%. Cells were then washed twice with PBS before adding pNpp (5.0 mM) in PBS ([75]). Following incubation with pNpp for 3 h at 25 °C ± 2 deg. C, wells were read at 405 nm using a Synergy HT BioTek Plate Reader.
# [3] = system: estrogen receptor (ER) activation in Ishikawa cells expressing F75A/F80A SULT1E1; test: cells; format: cell-based, human; settings: Homo sapiens, Ishikawa; F75A/F80A cell line; OH-PCB titration at 10 nM E2 (footnote a); NE = No Effect; read-out: Ligand EC50, ER activation
# Procedure: as §1, §2
compound,measurement,setting,value
"Oc1ccc(-c2c(Cl)cccc2Cl)cc1 [OH-PCB1, 4ʹ-OH-2,6-dichlorobiphenol]",Ki,[1],63 nM
same,Fold Effect = Ki OH-PCB1/Ki OH-PCB1 WT,SULT1E1 F75A,11
same,Ki,"SULT1E1 F75A; noncompetitive inhibition model, parentheses = one SD",630 nM
same,EC50,[2],38 nM
same,EC50,[3],> 1000 nM
